The values that follow come from patent US20230271969A1, “NITROGEN-CONTAINING FUSED RING DERIVATIVE INHIBITOR, PREPARATION METHOD THEREFOR AND USE THEREOF” (Shanghai Hansoh Biomedical Co., Ltd., priority 2020, published 2023).

For orientation: IC50 means the concentration needed to halve the response being measured.

In experiment [1] the target is T1, NK3 receptors (Homo sapiens, UniProt P29371).
T1 construct: expressed in transfected cells
T1 sequence (P29371 1-465): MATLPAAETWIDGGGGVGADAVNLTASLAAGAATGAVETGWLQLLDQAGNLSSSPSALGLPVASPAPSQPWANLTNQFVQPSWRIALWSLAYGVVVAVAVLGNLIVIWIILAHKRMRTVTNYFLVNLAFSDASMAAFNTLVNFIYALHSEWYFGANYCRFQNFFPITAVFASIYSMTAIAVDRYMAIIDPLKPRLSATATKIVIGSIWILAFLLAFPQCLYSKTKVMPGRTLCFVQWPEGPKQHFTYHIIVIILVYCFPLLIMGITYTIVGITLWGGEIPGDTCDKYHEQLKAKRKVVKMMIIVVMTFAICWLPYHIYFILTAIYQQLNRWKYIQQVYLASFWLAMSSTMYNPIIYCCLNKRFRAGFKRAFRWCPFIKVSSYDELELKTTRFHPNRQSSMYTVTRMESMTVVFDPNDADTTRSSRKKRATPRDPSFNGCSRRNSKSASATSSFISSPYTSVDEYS
Put plainly: Calcium ion fluidity (FLIPR) in cells with stable expression of NK3 receptors. It is filed as cell-based. To be noted: calcium signal, antagonist mode, read-out: NK3R IC50 (nM) FLIPR.

Experiment [2] concerns the target T1, NK3 receptors. Put plainly: Antagonism of IP1 in HEK293 cells with stable expression of NK3. The format is cell-based. To be noted: agonist Senktide 3 nM, read-out: NK3R IC50 (nM) IP1.
Experiment [3] has as its system Senktide-induced bilateral ovariectomy rats. Put plainly: Tail skin temperature in a Senktide-induced bilateral ovariectomy rat model. As to conditions: OVX SD rats, oral 30 mg/kg, 30 min before s.c. Senktide, tail skin temperature over 75 min. The format is in vivo. From the text:
Pharmacodynamic Study of the Test Compounds on Tail Skin Temperature in a Senktide-Induced Bilateral Ovariectomy Rat Model
To evaluate the effect of the test compounds on tail skin temperature in Senktide-induced bilateral ovariectomy rats.
2.3. Experimental Animals • Ten-Week-old female bilateral ovariectomy SD rats were purchased from Beijing Vital River Laboratory Animal Technology Co., Ltd. The animals were housed in a SPF grade animal facility with 5 SD rats per cage. The cages, bedding, feed and water were disinfected at high temperatures before use. All animals had free access to food and water.
Ten-week-old female SD rats were subjected to bilateral ovariectomy and recovered for two weeks, and then randomly divided into negative control group, model group and drug administration group (8 rats per group), based on body weight. The probe was attached to the dorsal surface of the rat tail with medical tape, 1-2 cm away from the tailhead of the rat.
The vehicle was administered orally to the negative control group and the model group, and different test compounds were administered orally to each drug administration group at a dose of 30 mg/kg and a volume of 10 mL/kg.
Thirty minutes after the oral administration of the vehicle or test compound, the negative control group was injected subcutaneously with normal saline (at a volume of 5 mL/kg); the model group and each drug administration group were injected subcutaneously with 0.2 mg/mL of Senktide (at a volume of 5 mL/kg) to induce the hot flashes-like symptom.
The change in tail skin temperature (ΔTST) at each time point relative to time point 0 was calculated, the ΔTST-time curve of the change in tail skin temperature was plotted, and the area under curve (AUCΔTST) was calculated. ΔTST=TSTn−TST0, TST0 is the tail skin temperature at 0 minute before the subcutaneous injection of normal saline or Senktide; TSTn is the tail skin temperature at the n minute after the subcutaneous injection.
AUCΔTST=Σ(ΔTSTn+ΔTSTn+5)*5/2

Experiment [4] concerns luteinizing hormone (LH) content in plasma. Put plainly: Luteinizing hormone (LH) content in plasma of bilateral ovariectomy (OVX) rats. To be noted: oral 30 mg/kg, plasma LH 0-8 h. It is filed as in vivo. From the text:
Test Example 5. Effect of the Compounds of the Present Invention on Luteindzing Hormone (LH) Content in Plasma of Bilateral Ovariectomy (OVX) Rats
The objective of this test example was to determine the effect of the compounds on luteinizing hormone (LH) in plasma of bilateral ovarnectomy (OVX) rats.
10-Week-old female bilateral ovariectomy SD rats were purchased from Beijing Vital River Laboratory Animal Technology Co., Ltd. The animals were housed in a SPF grade animal facility with 5 SD rats per cage. The cages, bedding, feed and water were disinfected at high temperatures before use. All animals had free access to food and water.
Drug administration by groups: 10-Week-old female SD rats were subjected to bilateral ovariectomy and used in experiments after 3 weeks. Each SD rat was fasted overnight before the experiment, and then randomly divided into groups (3 rats per group) before the drug administration. Different test compounds were administered orally to each drug administration group at a dose of 30 mg/kg and a volume of 10 mL/kg.
Sample collection: 0.2-0.3 mL of whole blood of the SD rats in each group was collected at 0, 0.5, 1, 2, 4, 8 hours before and after the drug administration, and placed in EDTA-K2 tubes. The tubes were inverted and mixed well, and centrifuged at 4° C. at 5,000 rpm for 5 min. Then the plasma was separated and stored in an ultra-low temperature freezer (−80±10° C.).
Sample detection: All reagents, samples and ELISA plates were equilibrated at room temperature (20-25° C.) for at least 30 min. The sample was thawed, vortexed and centrifuged for use. The standard curve was prepared with Assay buffer C according to the concentration sequence of 10, 5, 2.5, 1.25, 0.625, 0.313 and 0. The sample was diluted by two folds with Sample dilution buffer G and left to stand at room temperature for 10 min. […] The OD values of each well was read at a wavelength of 450 nm with a microplate reader.
The standard curve was plotted by using Graphpad, and the concentration of the sample was calculated. […]

Turning to `C[C@@H]1c2nnc(-c3nc4ccccc4s3)n2CCN1C(=O)c1ccc(Cl)cc1` [Example 3, (R)-(3-(Benzo[d]thiazol-2-yl)-8-methyl-5,6-dihydro-[1,2,4]triazolo[4,3-a]pyrazin-7 (8H)-yl)(4-chlorophenyl)methanone], the IC50 was 30.5 nM at NK3 receptors [1] and 68.7 nM on NK3 receptors [2]. In addition, the AUCΔTST in experiment [3] stood at 81.3 ± 37.4 °C · min.

In the case of `[2H]c1c([2H])c(C(=O)N2CCn3c(-c4nc5ccccc5s4)nnc3[C@H]2C)c([2H])c([2H])c1F` [Example 2, (R)-(3-(Benzo[d]thiazol-2-yl)-8-methyl-5,6-dihydro-[1,2,4]triazolo[4,3-a]pyrazin-7 (8H)-yl)(4-fluorophenyl-2,3,5,6-d4)methanone], the IC50 is 58.2 nM on NK3 receptors [1] and 171 nM at NK3 receptors [2]. The compound further returned an AUCΔTST in experiment [3] of 71.3 ± 25.5 °C · min.

As for `[2H]c1cc(C(=O)N2CCn3c(-c4nc5cc(F)c(F)cc5s4)nnc3[C@H]2C)ccc1F` [Example 62], the IC50 on NK3 receptors [1] came to 73.6 nM; on NK3 receptors [2], 92.3 nM. Further, the “ΣAUC(ΔLH/LH · h, Mean ± SD)” value in experiment [4] is reported as −1.77 ± 0.42 ΔLH/LH · h.

As for `[2H]c1cc(C(=O)N2CCn3c(-c4nc(Cl)ns4)nnc3[C@H]2C)ccc1Cl` [Example 73, (R)-(3-(3-Chloro-1,2,4-thiadiazol-5-yl)-8-methyl-5,6-dihydro-[1,2,4]triazolo[4,3-a]pyrazin-7(8H)-yl)(4-chlorophenyl-3-d)methanone], the IC50 at NK3 receptors [1] turned out to be 267 nM. The “ΣAUC(ΔLH/LH · h, Mean ± SD)” value in experiment [4] is listed as −2.04 ± 1.36 ΔLH/LH · h.
